Earlier results on 30 molecules are cited in US20140171436A1, “TREATMENT OF ANTIFOLATE NEUROTOXICITY” (Syntrix Biosystems, Inc., priority 2003, published 2014).

For data set [1] the following is noted: in words; 'No' = none known; cited from earlier work.
The next data set has as its target sigma-1 receptor (Homo sapiens, UniProt Q99720). The following applies: cited from earlier work.
In the next data set the target is NMDA receptor. The note with it: read-out: Ki NMDAR; cited from earlier work.
The next data set has as its target sigma-2 (Homo sapiens, UniProt Q5BJF2). The following applies: read-out: Ki sigma-2; cited from earlier work.
Another data set concerns the target sigma-1 (Cavia porcellus, UniProt Q60492). The note with it: Table IV, reference 8; read-out: sigma-1 affinity IC50; cited from earlier work.
The conditions of data set [2]: cited from earlier work.
For data set [3] the following is noted: frequent and massive doses as large as 3300 mg/day; cited from earlier work.
Setting [4] is: Table III, sigma-1 antagonists, read-out: sigma-1 affinity.
Setting [5] is: Table IV, undefined agonist/antagonist activity, read-out: sigma-1 affinity.
Where [6] appears, read: Table II, sigma-1 agonists, read-out: sigma-1 affinity.
Where [7] appears, read: delayed syndrome, moderate dose.

pIC50, pKi: −log10 of the molar value. Several values for one entry are separate records, joined by “and”; a condition that tells them apart may be missing. Equal values may be shown once. Read-outs that look alike come from different tables or passages of the source.

Sequence of sigma-2 (Q5BJF2 whole entry): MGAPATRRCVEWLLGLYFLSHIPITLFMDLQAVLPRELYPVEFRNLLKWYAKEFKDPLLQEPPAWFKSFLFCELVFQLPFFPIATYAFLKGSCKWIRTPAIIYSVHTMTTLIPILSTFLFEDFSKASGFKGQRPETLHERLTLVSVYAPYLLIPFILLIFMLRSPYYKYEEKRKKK
Sequence of sigma-1 (Q60492 whole entry): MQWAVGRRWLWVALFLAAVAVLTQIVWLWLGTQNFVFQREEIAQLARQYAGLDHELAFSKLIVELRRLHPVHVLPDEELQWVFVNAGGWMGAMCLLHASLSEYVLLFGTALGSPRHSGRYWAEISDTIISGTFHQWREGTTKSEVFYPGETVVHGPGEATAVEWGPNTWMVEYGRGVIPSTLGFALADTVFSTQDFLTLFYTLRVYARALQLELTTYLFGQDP
Sequence of sigma-1 receptor (Q99720 whole entry, species assumed): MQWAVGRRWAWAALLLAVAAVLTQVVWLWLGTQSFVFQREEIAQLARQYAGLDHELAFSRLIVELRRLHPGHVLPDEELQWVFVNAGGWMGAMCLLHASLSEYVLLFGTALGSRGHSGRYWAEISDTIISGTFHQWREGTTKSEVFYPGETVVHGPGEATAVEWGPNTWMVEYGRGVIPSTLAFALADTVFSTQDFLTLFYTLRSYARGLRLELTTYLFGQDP

Consider “1-(cyclopropylmethyl)-4-(2′-oxoethyl) piperidine HBr [Dup-734]”, for which the Other known affinity entry in data set [1] is recorded as “No”. On sigma-1 receptor (setting [4]), the pKi is more than 7.30.

Consider “2-[4-(4-methoxy-benzyl)piperazin-1-yl-methyl]4-oxo[4H]-benzo-thiazolin-2-one [S-21377]”, for which the Other known affinity entry in data set [1] was “No”. Besides, the pKi on sigma-1 receptor (setting [5]) was more than 7.30.

`C=CCN1CCC2(C)c3cc(O)ccc3CC1C2C` (single isomer, unassigned; (+)) [(+)-N-allyl-normetazocine]: the pKi on NMDA receptor is 6.22; on sigma-2, 4.85; on sigma-1 receptor (setting [6]) it was more than 7.30; at sigma-1 receptor (read-out: sigma-1 affinity Ki) it was 7.24.

`CC(C)=CCN1CCC2(C)c3cc(O)ccc3CC1C2C` (single isomer, unassigned; (+)) [(+)-pentazocine]: the Other known affinity entry in data set [1] was “No”.

For `CCC(C/C=C/c1ccccc1)(c1ccccc1)N(C)CC1CC1` (single isomer, unassigned; (+)) [Igmesine, (+) N-cyclopropylmethyl-N-methyl-1,4-diphenyl-1-ethyl-butyl-2-N], the pKi on sigma-1 receptor (setting [6]) was more than 7.30.

Regarding `CCCN1CCC[C@H](c2cccc(O)c2)C1` [(+)-3-PPP, R(+)-3-(3-hydroxyphenyl)-N-propylpiperidine], the Other known affinity result in data set [1] is given as “Dopamine receptor”.

With `C[C@H](Cc1ccccc1)NCCCc1ccccc1` [(−)-PPAP, R(−)-N-(3-phenyl-1-propyl)-1-phenyl-2-aminopropane], the Other known affinity entry in data set [1] was “NMDAR”.

On to `CN(CCc1ccc(Cl)c(Cl)c1)CCN1CCCC1` [BD-1008, N-[2-(3,4-dicholophenyl)ethyl]-N-methyl-2-(1-pyrrolidinyl)ethylamine], for which, in data set [1], the Other known affinity entry is reported as “sigma-2”.

In the case of `C=CCOc1ccc2c(c1)[C@@]13CCCC[C@H]1[C@@H](C2)N(C)CC3` [CPK-5, 3-allyloxy-17-methylmorphinan], the pKi at NMDA receptor was 4.74; on sigma-2, 4.85; on sigma-1 receptor (read-out: sigma-1 affinity Ki), 6.81.

As to `CN1CC[C@]23CCCC[C@H]2[C@H]1Cc1ccc(OCC2CC2)cc13` [CPK-6, 3-cyclopropylmethoxy-17-methylmorphinan], the pKi is 4.74 at NMDA receptor, 4.82 at sigma-2 and 6.83 at sigma-1 receptor (read-out: sigma-1 affinity Ki).

Regarding `CCN(CC)CCOC(=O)C1(c2ccccc2)CCCC1` [Caramiphen], the pIC50 at sigma-1 is 7.60.

As for `CCN(CC)CCOCCOC(=O)C1(c2ccccc2)CCCC1` [Carbetapentane], the negative logarithm of the IC50 (pIC50) on sigma-1 was 8.05. Besides, at sigma-1 receptor (setting [5]), the pKi is more than 7.30.

For the molecule `COC(=O)[C@H]1[C@@H](OC(=O)c2ccccc2)C[C@@H]2CC[C@H]1N2C` [Cocaine], the pKi at sigma-1 receptor (setting [6]) is 5.00 to 6.30.

For `Cc1ccc2c(c1)[C@@]13CCCC[C@H]1[C@@H](C2)N(C)CC3` [Dimemorfan, (+)-3-methyl-N-methylmorphinan], the pKi at NMDA receptor is 4.77; on sigma-2, 4.96 to 5.40; on sigma-1 receptor (read-out: sigma-1 affinity Ki), 6.82.

For the molecule `CN(C)CCOCCOC(=O)N1c2ccccc2Sc2ccccc21` [Dimethoxanate], on sigma-1, the pIC50 was 7.39. In addition, the pKi on sigma-1 receptor (setting [5]) is more than 7.30.

Turning to `OC(CN1CCC(Cc2ccc(F)cc2)CC1)c1ccc(Cl)cc1` (centres unmarked) [Eliprodil], in data set [1], the Other known affinity entry is “NMDAR polyamine site”. Further, the pKi on sigma-1 receptor (setting [5]) was more than 7.30.

For the molecule `CNCCC(Oc1ccc(C(F)(F)F)cc1)c1ccccc1` (centres unmarked) [Fluoxetine], in data set [1], the Other known affinity entry was “SSRI”.

In the case of `CN(C)CCCN1c2ccccc2CCc2ccccc21` [Imipramine], in data set [1], the Other known affinity result is on record as “MAOI”. Also, the pKi at sigma-1 receptor (setting [6]) was 6.30 to 7.30.

As to `COCCN1CCN(C[C@H]2CCN(c3ccc(Cl)cc3)C2=O)CC1.O=C(O)C(O)C(O)C(=O)O` [MS-377, (R)-(+)-1-(4-chlorophenyl)-3-[4-(2-methoxyethyl)piperazin-1-yl] methyl-2-pyrrolidinone L-tartrate], the Other known affinity result in data set [1] is recorded as “No”. In addition, the pKi on sigma-1 receptor (setting [4]) was more than 7.30.

Take `CN(Cc1cnc2nc(N)nc(N)c2n1)c1ccc(C(=O)N[C@@H](CCC(=O)O)C(=O)O)cc1` [MTX, Methotrexate]: the Incidence in data set [2] (acute syndrome, >1 g/m^2, IT) is 5-40%. In data set [2] (delayed (chronic) syndrome, low dose <10 mg/m^2 oral), the Incidence result was “Low - 56%”. The Incidence result in data set [2] (delayed syndrome, high dose 7-20 g/m^2 every 1-2 weeks) was “High - 2.3%”. For the same molecule, the “Typical duration of symptoms, insidiously progressive” value in data set [2] (delayed syndrome, high dose) is listed as “High - Insidiously progressive over 3-6 months”. In addition, in data set [2] (delayed syndrome, moderate dose 10-1000 mg/m^2, depending on net dose), the Incidence result was “Moderate - 1.9-19.5% depending on net dose”. Besides, the “Radiographic findings: leukoencephalopathy” value in data set [2] (delayed syndrome, moderate dose, depending on dose) was “Moderate - Leukoencephalopathy in 15-75%,”. In data set [2] (setting [7]), the “Permanent sequelae: asymptomatic” value was “asymptomatic in 63-74%”, the “Permanent sequelae: neuropsychologic impairment” value was “neuropsychologic impairment 15%,” and the “Permanent sequelae: recurrent seizures” value is “Moderate - Recurrent seizures 7-26%,”. Further, in data set [2] (subacute syndrome), the “Typical duration of symptoms, mean” value is reported as “Mean 38 hours” and the “mean duration of symptoms” value is on record as “approximately 40 hours”.

As for `Cc1c(-c2ccccc2)oc2ccc(OCCCCCCN3CCC(O)CC3)cc2c1=O` [NPC 16377, 6-[6-(4-hydroxypiperidinyl)hexyloxy]-3-methylflavone], the Other known affinity result in data set [1] is listed as “No”.

In the case of `COc1cccc2c1CCC(=O)N2CCCN1CCN(c2cccc(Cl)c2)CC1` [OPC-14523], the Other known affinity entry in data set [1] is reported as “Sigma-2, 5HT1AR”. The pKi at sigma-1 receptor (setting [6]) was more than 7.30.

For `C[C@]12CC[C@H](OS(=O)(=O)O)CC1=CC[C@@H]1[C@@H]2CC[C@]2(C)C(=O)CC[C@@H]12` [PB-008, dihydroepiandrosterone sulphate], at sigma-1 receptor (setting [6]), the pKi was 5.00 to 6.30.

With `COc1ccc(N2C[C@H](CN3CCC(O)(c4ccc5c(c4)OCO5)CC3)OC2=O)cc1` [Panamesin], the pKi at sigma-1 receptor (setting [4]) was more than 7.30.

On to `O=C(OCCOCCN1CCCCC1)N1c2ccccc2Sc2cccnc21` [Pipazethate], for which the negative logarithm of the IC50 (pIC50) at sigma-1 was 6.72. The pKi on sigma-1 receptor (setting [5]) was more than 7.30.

As for `CC(=O)C1CCC2C3CC=C4CC(OS(=O)(=O)O)CCC4(C)C3CCC12C` (centres unmarked) [Pregnenolone sulphate], the pKi at sigma-1 receptor (setting [6]) is 5.00 to 6.30.

Turning to `c1ccc(CN2CCN(Cc3ccc4ccccc4c3)CC2)cc1` [S-21378, 2[(4-benzylpiperazin-1-yl)mothyl] naphthalene, dichiorydrate], the Other known affinity entry in data set [1] was “No”. Besides, the pKi at sigma-1 receptor (setting [5]) is more than 7.30.

For the molecule `COc1ccc(CCN2CCN(CCCc3ccccc3)CC2)cc1OC.Cl` [SA4503, 1-(3,4-dimethoxyphenethyl)-4-(3-phenylpropyl) piperazine HCl], in data set [1], the Other known affinity entry is listed as “No”.

For the molecule `CCN(C/C=C\c1ccc(C2CCCCC2)c(Cl)c1)C1CCCCC1.Cl` [SR-31747A], the Other known affinity entry in data set [1] is “C8-C7 sterol isomerase”. The pKi at sigma-1 receptor (setting [5]) is more than 7.30.

Turning to `CN1CC[C@@]23CCCC[C@@H]2[C@@H]1Cc1ccc(O)cc13` [dextrorphan], the side-effects result in data set [3] is given as “unacceptable PCP-like side-effects”. The pKi at sigma-2 is 4.96 to 5.40; on sigma-1 receptor (read-out: sigma-1 affinity Ki) it was 6.84 and 6.85.
